Consider 2 compounds from paper PMC6348381, “Discovery of an MLLT1/3 YEATS Domain Chemical Probe” (Angewandte Chemie (International Ed. in English), 2018).

Bounds are passed on as bounds.

The target in assay [1] is T1, MLLT1 YD (Homo sapiens, UniProt Q03111).
T1 construct: made in house; host or cells: E. coli Rosetta
T1 sequence (Q03111 1-138 limits assumed): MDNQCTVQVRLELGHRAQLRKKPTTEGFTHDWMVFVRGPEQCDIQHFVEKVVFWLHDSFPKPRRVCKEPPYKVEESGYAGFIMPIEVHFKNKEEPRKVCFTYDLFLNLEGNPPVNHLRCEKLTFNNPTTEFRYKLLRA
Description: AlphaScreen (AS) assay, MLLT1 YEATS domain. Type of assay: binding. On the procedure: II.IV Protein Expression and Purification
Human bromodomains were cloned, expressed and purified as previously described. The cloning, expression and purification of human YEATS domains are described as follows; Sequences for the wild type YEATS domains of MLLT1, MLLT3, GAS41 and YEATS2 were cloned into expression vectors (Table S1). E. coli Rosetta cells were grown in TB medium at 37°C. Overexpression was induced after five hours by addition of IPTG to a final concentration of 0.4 mM and cells were incubated at 17°C overnight. Cells were harvested by centrifugation and the cell pellet was resuspended in cold binding buffer (50 mM Tris at pH 7.5, 500 mM NaCl, 20 mM imidazole, 2 mM DTT) on a magnetic stirring plate at 4°C. The suspension was lysed using an Avestin EmulsiFlex-C5 homogeniser (1 pass without pressure, four passes with pressure between 1000-1500 bar). The lysate was clarified via centrifugation at 16,000 rpm at 4°C for 1 hour (JLA-16 rotor in Beckmann Coulter Avanti J- […]
The supernatant was loaded onto a standard NiNTA column (HisTrap
FF, 5 ml, GE Healthcare Lifesciences) on an ÄKTAxpress system (GE). After washing with binding buffer, the target protein was eluted at 300 mM imidazole. The eluted peak fractions were pooled and concentrated to 5 ml (Amicon concentrators, 10 kDa molecular weight cut off (MWCO)) and then separated via size exclusion chromatography (buffered with 20 mM Tris at pH 7.5, 500 mM NaCl, 2 mM DTT) using a GE Superdex 75 column on an […]
(NanoDrop ND-1000 Spectrophotometer) and protein identity was verified via SDS-PAGE and LC/MS. Pooled fractions were then again concentrated to at least 2 mg/ml and stored at […]
(§1) (1 picture or pasted object on this page, not shown here)
(Bead proximity is the source of the signal in Alpha formats.)

For assay [2], the target named is CECR2 (Homo sapiens, UniProt Q9BXF3). The assay is described as follows: AlphaScreen selectivity screen, CECR2. Format: binding. An excerpt:
IC50 (µM) IC50 (µM) IC50 (µM) IC50 (µM) (µM) (µM) (µM)
Supplementary Table 1. […]

Assay [3] deals with T2, MLLT3 YD (Homo sapiens, UniProt P42568).
T2 construct: made in house; host or cells: E. coli Rosetta
Description: Isothermal titration calorimetry (ITC), MLLT3 YD. Type of assay: binding. On the procedure:
Supplementary Table 1. AlphaScreen selectivity screen of compound 92 over other acyllysine […]
II.III Isothermal Titration Calorimetry (ITC)
Experiments were carried out on a Nano -ITC Standard Volume Instrument (TA Instruments).
All experiments were carried out at 25 °C in 20 mM HEPES pH 7.5, 150 mM NaCl, 0.5 mM TCEP and 5% glycerol. Protein soluti ons were buffer exchanged by gel filtration. The titrations were conducted using an initial injection of 2 μL followed by 32 injections of 8 μL.
Background dilution heat was subtracted from each experiment. Thermodynamic parameters […]
changes in free energy, enthalpy and entropy respectively. Independent single site binding models were employed in data analysis.
(also on this page, place not known: ac yllysine Nano-ITC -T 1/ KB. ΔH Molar&ratio&[injectant/cell] Time&[s] Corrected&Heat&Rate&[ucal/s] Experiment&1 K Experiment&2 K K)
as §1
(ITC needs no label: the signal is the heat of the interaction.)

The target of assay [4] is T3, endogenous MLLT1 in MV4;11 cells (Homo sapiens, UniProt Q03111).
T3 construct: with endogenous MLLT1 in MV4;11 cells; endogenous in cells; host or cells: MV4;11
The assay is described as follows: Cellular thermal shift assay (CETSA), MV4;11 cells. Type of assay: cell-based. The conditions noted are these: up to 10 μM. The method, then:
Supplementary Table 2. Thermal stabilisation of compound 1, 92 and Bromosporine with recombinant human bromodomain proteins. *50 µM compound concentration. †10 µM compound […]
II.VIII Cellular Thermal Shift Assay[6]
HEK293 and MV4;11 cells were cultured at 37 °C in a humidified 5% CO2 atmosphere in DMEM Medium containing 10% FBS, respectively. Cells were grown until approximately […]
DMSO final concentrati on) for 30 minutes. Cells were then collected, washed with PBS, transferred in PCR tubes, and pelleted by centrifugation (300 g, 3 min, RT.) The PBS was removed, and the cell pellets heated at the indicated temperature for 3 minutes in a PCR machine (UNO96 , VMR) and then placed on ice. Lysis buffer (50 mM Tris pH 7.5, 0.8% v/v NP-40, 5% v/v glycerol, 1.5 mM MgCl2, 100 mM NaCl, 25 mM NaF, 1mM Na3VO4, 1mM PMSF, 1mM DTT, 10 μg/mL TLCK, 1 μg/mL Leupeptin, 1 μg/mL Aprotinin, 1 μg/mL soy bean trypsin, ≥250 units/ mL Benzonase) was added and the cells lysed by 3 freeze -thaw cycles in liquid nitrogen. Aggregated proteins were removed by centrifugation (17000 g, 20 min, 4 °C) and the protein concentration of the retained soluble fraction determined. 4× sample loading buffer (Bio-Rad) containing 20% v/v DTT was added and samples were heated for 6 min at 90 °C prior to separation by SDS -PAGE. […]

CECR2, sequence (Q9BXF3 434-538 limits assumed): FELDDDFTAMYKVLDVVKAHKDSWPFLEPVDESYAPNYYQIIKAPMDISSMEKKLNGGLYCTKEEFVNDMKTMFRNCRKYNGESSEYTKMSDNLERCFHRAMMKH
T3 sequence (Q03111 whole entry): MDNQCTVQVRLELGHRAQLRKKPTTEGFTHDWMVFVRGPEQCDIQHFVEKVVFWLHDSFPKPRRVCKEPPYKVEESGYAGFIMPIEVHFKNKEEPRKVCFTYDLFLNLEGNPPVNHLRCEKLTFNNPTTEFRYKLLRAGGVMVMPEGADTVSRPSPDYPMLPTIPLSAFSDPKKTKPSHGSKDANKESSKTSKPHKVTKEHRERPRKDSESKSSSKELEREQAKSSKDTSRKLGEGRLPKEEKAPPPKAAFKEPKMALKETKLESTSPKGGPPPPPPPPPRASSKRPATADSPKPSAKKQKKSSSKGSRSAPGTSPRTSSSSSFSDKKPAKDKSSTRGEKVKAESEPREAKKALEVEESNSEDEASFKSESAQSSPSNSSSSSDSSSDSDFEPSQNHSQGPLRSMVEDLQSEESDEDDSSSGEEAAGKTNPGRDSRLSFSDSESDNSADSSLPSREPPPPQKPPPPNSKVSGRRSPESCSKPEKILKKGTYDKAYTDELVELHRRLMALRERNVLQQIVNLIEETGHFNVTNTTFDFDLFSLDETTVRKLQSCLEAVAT
T2 sequence (P42568 1-138 limits assumed): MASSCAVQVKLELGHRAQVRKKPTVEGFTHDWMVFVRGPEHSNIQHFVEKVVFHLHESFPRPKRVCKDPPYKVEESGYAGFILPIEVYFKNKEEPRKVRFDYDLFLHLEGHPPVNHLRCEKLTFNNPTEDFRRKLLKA

What is called IC50 is the concentration that inhibits the measured activity by half. Compound `COC(=O)c1ccc(C(=O)Nc2ccc3[nH]c(CN4CCCCC4)nc3c2)cc1` [Compound 1] returned a concentration for half-maximal inhibition (IC50) in assay [1] of 2.1 ± 0.78 µM.
As usually defined, the Kd is the concentration at which binding is half-saturated. Read a low Kd as a tighter complex. As to `C[C@H]1CCCN1Cc1nc2cc(NC(=O)c3ccc4c(cnn4C)c3)ccc2[nH]1` [Compound 92], in assay [2] (10 μM using AS), the “inhibition of CECR2” value is reported as “no inhibition”. Also, the IC50 in assay [2] (AlphaScreen selectivity screen, read-out: CECR2 (2) IC50) is over 10 µM. In addition, the affinity in assay [3], expressed as Kd, was 0.077 µM. The “thermal stabilisation of MLLT1 (CETSA)” value in assay [4] is given as “stabilisation of MLLT1”.
